Data taken from PMC4166607, “Distinct ETA Receptor Binding Mode of Macitentan As Determined by Site Directed Mutagenesis” (PLoS ONE, 2014).
Read-outs that look alike come from different tables or passages of the source. Square brackets hold non-standard residues; d marks the D form. Peptide text beside a SMILES is read from it.

Columns and labels:
ETA receptor [1] = target: T1, ETA receptor (Homo sapiens, UniProt P25101); test: cell-based
[2] = target: T2, ETA receptor variant K329M (Homo sapiens, UniProt P25101, K329M); test: cell-based
[3] = target: T3, ETA receptor variant R326Q (Homo sapiens, UniProt P25101, R326Q)
[4] = target: T4, ETA receptor variant D351N (Homo sapiens, UniProt P25101, D351N); test: cell-based
[5] = target: T5, ETA receptor variant I355A (Homo sapiens, UniProt P25101, I355A)
wildtype ETA receptor [6] = target: T6, wildtype ETA receptor (Homo sapiens, UniProt P25101)
[7] = target: T4, ETA receptor variant D351N
[8] = target: T2, ETA receptor variant K329M
[9] = target: T3, ETA receptor variant R326Q; test: cell-based
wildtype ETA receptor [10] = target: T6, wildtype ETA receptor; test: cell-based
[11] = target: T7, ETA receptor variant Q165A (Homo sapiens, UniProt P25101, Q165A); test: cell-based
ETA receptor [12] = target: T1, ETA receptor; details: cited from earlier work; for ETA receptor occupancy half-life (t1/2): PASMC
[13] = cited from earlier work
[14] = target: T8, ETA receptor variant L322A (Homo sapiens, UniProt P25101, L322A)
[15] = target: T7, ETA receptor variant Q165A
[16] = cited from earlier work; remark: listed apart in the source
[17] = target: T5, ETA receptor variant I355A; test: cell-based
[18] = target: T8, ETA receptor variant L322A; test: cell-based
ETA receptor [19] = target: T1, ETA receptor; details: PASMC, 5 µM ET-1, 20 min stimulation, maximal ERA concentration 1 µM, arithmetic means, normalized to macitentan analogs 1 or 8 (100%)
[20] = pKa1, no method or reference printed
[21] = pKa2, no method or reference printed

T4 sequence (P25101 21-427 D351N): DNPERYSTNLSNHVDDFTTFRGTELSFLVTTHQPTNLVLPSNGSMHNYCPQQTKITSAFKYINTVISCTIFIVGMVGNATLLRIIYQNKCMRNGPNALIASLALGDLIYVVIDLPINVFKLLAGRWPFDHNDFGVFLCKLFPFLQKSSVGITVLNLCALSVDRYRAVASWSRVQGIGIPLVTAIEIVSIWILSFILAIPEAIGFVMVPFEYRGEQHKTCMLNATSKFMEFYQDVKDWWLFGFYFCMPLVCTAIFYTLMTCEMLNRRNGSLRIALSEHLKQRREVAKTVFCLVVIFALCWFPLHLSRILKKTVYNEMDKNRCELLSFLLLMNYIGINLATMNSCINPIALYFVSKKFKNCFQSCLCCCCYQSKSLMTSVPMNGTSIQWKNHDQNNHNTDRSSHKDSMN
T8 sequence (P25101 21-427 L322A): as the sequence (P25101 21-427 D351N) above, with L302A, N331D counted along it
T2 sequence (P25101 21-427 K329M): as the sequence (P25101 21-427 D351N) above, with K309M, N331D counted along it
T6 sequence (P25101 21-427): as the sequence (P25101 21-427 D351N) above, with N331D counted along it
T1 sequence (P25101 21-427): as the sequence (P25101 21-427 D351N) above, with N331D counted along it
T7 sequence (P25101 21-427 Q165A): as the sequence (P25101 21-427 D351N) above, with Q145A, N331D counted along it
T3 sequence (P25101 21-427 R326Q): as the sequence (P25101 21-427 D351N) above, with R306Q, N331D counted along it
T5 sequence (P25101 21-427 I355A): as the sequence (P25101 21-427 D351N) above, with N331D, I335A counted along it

Compound: CC(C)C[C@@H]1NC(=O)[C@@H](C(C)C)NC(=O)[C@@H]2CCCN2C(=O)[C@@H](CC(=O)O)NC(=O)[C@@H](Cc2c[nH]c3ccccc23)NC1=O [BQ123] (cyclo(L[dW][dD]P[dV]))
- IC50 (ETA receptor [1]; log IC50 (M), calcium flux, PASMC, 4 nM–[…] nM ET-1 (EC80)): 1.26e-09 M

Compound: COC(c1ccccc1)(c1ccccc1)[C@H](Oc1nc(C)cc(C)n1)C(=O)O [ambrisentan]
- IC50 [2]: 0.58 nM
- IC50 shift versus wildtype (fold) [3]: 317 fold
- IC50 [4]: 4.5 nM
- IC50 shift versus wildtype (fold) [5]: 2.9 fold
- IC50 shift versus wildtype (fold) (wildtype ETA receptor [6]): 1.0 fold
- IC50 shift versus wildtype (fold) [7]: 1.6 fold
- IC50 shift versus wildtype (fold) [8]: 0.2 fold
- IC50 [9]: 887 nM
- IC50 (wildtype ETA receptor [10]): 2.8 nM
- IC50 [11]: 3160 nM
- ETA receptor occupancy half-life (t1/2) (ETA receptor [12]): 1 min
- logD [13]: −0.4
- IC50 shift versus wildtype (fold) [14]: 15 fold
- IC50 shift versus wildtype (fold) [15]: 1129 fold
- pKa [16]: 3.5
- IC50 (ETA receptor [1]): 4.4e-10 M
- IC50 [17]: 8.1 nM
- IC50 [18]: 41 nM

Compound: COc1ccccc1Oc1c(NS(=O)(=O)c2ccc(C(C)(C)C)cc2)nc(-c2ncccn2)nc1OCCO [bosentan]
- Insurmountability (%) (ETA receptor [19]): 0%
- logD [13]: 1.3
- pKa [16]: 5.1

Compound: COc1ccccc1Oc1c(NS(=O)(=O)c2ccc(C)cn2)nc(-c2ccnc(-c3nnn[nH]3)c2)nc1OCCO [clazosentan]
- IC50 shift versus wildtype (fold) [3]: 26 fold
- IC50 shift versus wildtype (fold) [5]: 32 fold
- IC50 shift versus wildtype (fold) (wildtype ETA receptor [6]): 1 fold
- pKa (physchem; [20]): 4.5
- pKa (physchem; [21]): 3.3
- IC50 [9]: 2.2 nM
- IC50 (wildtype ETA receptor [10]): 0.085 nM
- IC50 shift versus wildtype (fold) [14]: 1.2 fold
- IC50 (ETA receptor [1]): 3.3e-11 M
- IC50 [17]: 2.7 nM
- IC50 [18]: 0.1 nM

Compound: CCCCNS(=O)(=O)Nc1ncnc(OCCOc2ncc(Br)cn2)c1-c1ccc(Br)cc1 [macitentan analog 1]
- IC50 shift versus wildtype (fold) [3]: 7.1 fold
- IC50 shift versus wildtype (fold) [5]: 0.3 fold
- IC50 shift versus wildtype (fold) (wildtype ETA receptor [6]): 1 fold
- IC50 [9]: 1.2 nM
- IC50 (wildtype ETA receptor [10]): 0.17 nM
- IC50 shift versus wildtype (fold) [14]: 188 fold
- IC50 (ETA receptor [1]): 9.3e-11 M
- IC50 [17]: 0.047 nM
- IC50 [18]: 32 nM

Compound: CCNS(=O)(=O)Nc1ncnc(OCCOc2ncc(Br)cn2)c1-c1ccc(Br)cc1 [macitentan analog 2]
- IC50 shift versus wildtype (fold) [3]: 7.1 fold
- IC50 shift versus wildtype (fold) [5]: 0.8 fold
- IC50 shift versus wildtype (fold) (wildtype ETA receptor [6]): 1 fold
- IC50 [9]: 34 nM
- IC50 (wildtype ETA receptor [10]): 4.8 nM
- IC50 shift versus wildtype (fold) [14]: 228 fold
- IC50 (ETA receptor [1]): 5.1e-10 M
- IC50 [17]: 3.9 nM
- IC50 [18]: 1090 nM

Compound: O=S(=O)(NCc1ccccc1)Nc1ncnc(OCCOc2ncc(Br)cn2)c1-c1ccc(Br)cc1 [macitentan analog 3]
- IC50 (ETA receptor [1]): 8.5e-11 M

Compound: CCS(=O)(=O)Nc1ncnc(OCCOc2ncc(Br)cn2)c1-c1ccc(Br)cc1 [macitentan analog 4]
- IC50 (ETA receptor [1]): 1.2e-09 M

Compound: CCCS(=O)(=O)Nc1ncnc(OCCOc2ncc(Br)cn2)c1-c1ccc(Br)cc1 [macitentan analog 5]
- IC50 (ETA receptor [1]): 3.8e-10 M

Compound: CCCCS(=O)(=O)Nc1ncnc(OCCOc2ncc(Br)cn2)c1-c1ccc(Br)cc1 [macitentan analog 6]
- IC50 (ETA receptor [1]): 6.2e-10 M

Compound: CCCNS(=O)(=O)Nc1ncnc(OCCOc2ncc(OC)cn2)c1-c1ccc(Br)cc1 [macitentan analog 7]
- IC50 shift versus wildtype (fold) [3]: 6.5 fold
- IC50 shift versus wildtype (fold) [5]: 1.1 fold
- IC50 shift versus wildtype (fold) (wildtype ETA receptor [6]): 1 fold
- IC50 [9]: 268 nM
- IC50 (wildtype ETA receptor [10]): 41 nM
- IC50 shift versus wildtype (fold) [14]: 66 fold
- IC50 (ETA receptor [1]): 3.9e-09 M
- IC50 [17]: 45 nM
- IC50 [18]: 2690 nM

Compound: CCCNS(=O)(=O)Nc1ncnc(OCCOc2ncc(I)cn2)c1-c1ccc(Br)cc1 [macitentan analog 8]
- IC50 (ETA receptor [1]): 6.5e-11 M

Compound: CCCNS(=O)(=O)Nc1ncnc(OCCOc2ncc(Br)cn2)c1-c1ccc(Cl)cc1 [macitentan analog 9]
- IC50 shift versus wildtype (fold) [3]: 3.3 fold
- IC50 shift versus wildtype (fold) [5]: 0.6 fold
- IC50 shift versus wildtype (fold) (wildtype ETA receptor [6]): 1 fold
- IC50 [9]: 46 nM
- IC50 (wildtype ETA receptor [10]): 14 nM
- IC50 shift versus wildtype (fold) [14]: 136 fold
- IC50 (ETA receptor [1]): 4.7e-10 M
- IC50 [17]: 8.6 nM
- IC50 [18]: 1900 nM

Compound: CCCNS(=O)(=O)Nc1ncnc(OCCOc2ccc(Br)cc2)c1-c1ccc(Br)cc1 [macitentan analog 10]
- IC50 (ETA receptor [1]): 4.31e-07 M

Compound: CCCNS(=O)(=O)Nc1ncnc(OCCCOc2ncc(Br)cn2)c1-c1ccc(Br)cc1 [macitentan analog 11]
- IC50 (ETA receptor [1]): 3.5e-08 M

Compound: CCCNS(=O)(=O)Nc1ncnc(OCCCCOc2ncc(Br)cn2)c1-c1ccc(Br)cc1 [macitentan analog 12]
- IC50 (ETA receptor [1]): 2.55e-07 M

Compound: CCCNS(=O)(=O)Nc1ncnc(OCCOc2ncc(Br)cn2)c1-c1ccc(Br)cc1 [macitentan, N-[5-(4-bromophenyl)-6-[2-[(5-bromo-2-pyrimidinyl)oxy]ethoxy]-4-pyrimidinyl]-N′-propylsulfamide]
- IC50 [2]: 0.58 nM
- IC50 shift versus wildtype (fold) [3]: 6.3 fold
- IC50 [4]: 1.5 nM
- IC50 shift versus wildtype (fold) [5]: 0.9 fold
- IC50 shift versus wildtype (fold) (wildtype ETA receptor [6]): 1.0 fold
- IC50 shift versus wildtype (fold) [7]: 1.2 fold
- Insurmountability (%) (ETA receptor [19]): 64%
- IC50 shift versus wildtype (fold) [8]: 0.5 fold
- IC50 [9]: 7.6 nM
- IC50 (wildtype ETA receptor [10]): 1.2 nM
- IC50 [11]: 209 nM
- ETA receptor occupancy half-life (t1/2) (ETA receptor [12]): ~17 min
- increase of receptor occupancy half-life compared to ambrisentan and bosentan (ETA receptor [12]; human primary PASMC): ~20 fold
- logD [13]: 2.9
- IC50 shift versus wildtype (fold) [14]: 148 fold
- IC50 shift versus wildtype (fold) [15]: 174 fold
- IC50 (ETA receptor [1]): 1.7e-10 M
- IC50 [17]: 1.1 nM
- IC50 [18]: 178 nM

Compound: COc1ccccc1Oc1c(NS(=O)(=O)c2ccc(C(C)C)cn2)nc(-c2ccnc(-c3nnn[nH]3)c2)nc1OCCO [tezosentan]
- IC50 shift versus wildtype (fold) [3]: 50 fold
- IC50 shift versus wildtype (fold) [5]: 54 fold
- IC50 shift versus wildtype (fold) (wildtype ETA receptor [6]): 1 fold
- pKa (physchem; [20]): 4.4
- pKa (physchem; [21]): 4.1
- IC50 [9]: 13 nM
- IC50 (wildtype ETA receptor [10]): 0.26 nM
- IC50 shift versus wildtype (fold) [14]: 2.0 fold
- IC50 (ETA receptor [1]): 5.2e-11 M
- IC50 [17]: 14 nM
- IC50 [18]: 0.53 nM
